Assay results published in paper PMC12377105, “Development of eugenol derivatives with 5-LOX inhibitory activity” (Journal of Enzyme Inhibition and Medicinal Chemistry, 2025).
Several values for one entry are separate records, joined by “and”; a condition that tells them apart may be missing. Equal values may be shown once.

Molecular target: T1, soybean lipoxygenase (model enzyme for 5-LOX) (Glycine max, UniProt P08170)
T1 sequence (P08170 1-839): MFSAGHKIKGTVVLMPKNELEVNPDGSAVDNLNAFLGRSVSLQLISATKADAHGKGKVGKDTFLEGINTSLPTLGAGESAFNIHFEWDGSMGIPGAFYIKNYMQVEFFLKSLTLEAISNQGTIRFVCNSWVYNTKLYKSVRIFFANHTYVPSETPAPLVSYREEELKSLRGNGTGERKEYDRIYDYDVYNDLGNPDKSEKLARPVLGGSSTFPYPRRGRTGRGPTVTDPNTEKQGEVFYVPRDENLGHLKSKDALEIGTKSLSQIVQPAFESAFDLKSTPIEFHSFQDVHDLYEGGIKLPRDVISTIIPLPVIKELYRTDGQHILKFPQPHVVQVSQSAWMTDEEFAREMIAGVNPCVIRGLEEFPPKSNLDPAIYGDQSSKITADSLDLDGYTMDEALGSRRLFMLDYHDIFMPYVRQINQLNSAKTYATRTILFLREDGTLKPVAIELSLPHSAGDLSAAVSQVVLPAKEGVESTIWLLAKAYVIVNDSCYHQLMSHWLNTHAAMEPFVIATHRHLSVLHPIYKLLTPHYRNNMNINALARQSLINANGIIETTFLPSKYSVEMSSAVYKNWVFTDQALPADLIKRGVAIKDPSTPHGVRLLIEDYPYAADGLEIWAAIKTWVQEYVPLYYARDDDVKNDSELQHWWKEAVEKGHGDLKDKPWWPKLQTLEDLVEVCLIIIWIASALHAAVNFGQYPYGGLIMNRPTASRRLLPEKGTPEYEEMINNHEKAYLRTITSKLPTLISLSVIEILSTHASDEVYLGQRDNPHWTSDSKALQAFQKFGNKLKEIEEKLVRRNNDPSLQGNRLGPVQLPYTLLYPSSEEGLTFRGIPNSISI
Assay: In vitro 5-LOX inhibition assay (soybean lipoxygenase, oxidation of linoleic acid at 234 nm)
Type: biochemical
Details: for IC50: dose-response, concentration range 6.25-100 µM
Protocol: Soybean lipoxygenase (linoleate 13S-lipoxygenase) is widely accepted as a model enzyme to screen compounds for LOX inhibition due to the high degree of binding site similarity between plant LOXs and animal 5-LOX[20]. LOX inhibition was assessed at room temperature, following the oxidation of linoleic acid to 13-hydroperoxylinoleic acid at 234 nm, according to a described procedure. The assay was performed by adding 20 μL of each eugenol derivative (1.3 mM) dissolved in phosphate buffer, 200 μL of phosphate buffer (pH 9.0) and 20 μL of soybean lipoxygenase solution (100 U). After 5 min of incubation at room temperature, the reaction was initiated by the addition of 20 μL of linoleic acid (4.18 mM in ethanol), absorbance being monitored during 3 min, using a Multiskan GO plate reader (Thermo Fisher Scientific; Waltham, MA, USA). The inhibition of enzyme activity was then calculated by comparing the reaction rate with the control (no compound). Quercetin (50 μM, final concentration) was used as a positive control.

[1] = 100 µM, cell-free preliminary screening

Compound	5-LOX inhibitory activity (in words) [1]	IC50	inhibition at 100 µM [1] [%]
C=CCc1ccc(OCCCC(=O)OCC)c(OC)c1 [4e, ethyl-4-(4-allyl-2-methoxyphenoxy)butanoate]	statistically significant reduction in 5-LOX activity	< 100 µM and 76.2 µM	
COc1cc(CC2CO2)ccc1OCCCOC(C)=O (stereo not drawn) [5d, 3-(2-methoxy-4-(oxiran-2-ylmethyl)phenoxy)propyl acetate]	highly active	< 100 µM and 36.9 µM	
COCC(O)Cc1ccc(O)c(OC)c1 (stereo not drawn) [7a]	inactive		
CCOCC(O)Cc1ccc(O)c(OC)c1 (stereo not drawn) [7b]			~30
COc1cc(CC(O)COC(C)(C)C)ccc1O (stereo not drawn) [7c, 4-(3-(tert-butoxy)-2-hydroxypropyl)-2-methoxyphenol]	almost full inhibition	< 100 µM and 33.8 µM	
COc1cc(CC(O)COc2ccccc2)ccc1O (stereo not drawn) [7f]	inactive		
CCCCCCC(C)NCC(O)Cc1ccc(OC)c(O)c1 (stereo not drawn) [8b]	did not show statistically significant inhibition		
COc1cc(CC(O)CN2CCCCC2)ccc1O (stereo not drawn) [8c]	did not show statistically significant inhibition		
COc1cc(CC(O)CN(C)c2ccccc2)ccc1O (stereo not drawn) [8d]	statistically significant activity		
COc1cc(CC(O)CNc2ccccc2)ccc1O (stereo not drawn) [8e]	did not show statistically significant inhibition		
COc1cc(CC(O)CNc2ccc(C#N)cc2)ccc1O (stereo not drawn) [8f]	did not show statistically significant inhibition		
COc1ccc(NCC(O)Cc2ccc(O)c(OC)c2)cc1 (stereo not drawn) [8g]	statistically significant activity		
COc1cccc(NCC(O)Cc2ccc(O)c(OC)c2)c1 (stereo not drawn) [8h]	statistically significant activity		
COc1cc(CC(O)CNc2cccc(Br)c2)ccc1O (stereo not drawn) [8i]	did not show statistically significant inhibition		
COc1cc(CC(O)C[N+](=O)[O-])ccc1O (stereo not drawn) [9a]	did not show statistically significant inhibition		
C=CCc1ccc(O)c(O)c1 [compound 2, 4-allylbenzene-1,2-diol]	promising activity	< 100 µM and 34 µM	
COc1cc(CC2CO2)ccc1O (stereo not drawn) [compound 6, 2-methoxy-4-(oxiran-2-ylmethyl)phenol]	did not show inhibitory activity		
